Measured values taken from patent US10206907B2, “Compounds useful for the treatment of degenerative and inflammatory diseases” (GALAPAGOS NV, priority 2008, dated 2019).

target: Recombinant human JAK1 catalytic domain (Homo sapiens (Human), UniProt P23458); experiment: JAK1 inhibition assay; type: biochemical; settings: semi-quantitative score
Experimental: Plates were washed 6 times with 300 μL per well of a 75 mM phosphoric acid solution and the bottom of the plates was sealed. 40 μL/well of Microscint-20 was added, the top of the plates was sealed and readout was performed using the Topcount (Perkin Elmer). Kinase activity was calculated by subtracting counts per minute (cpm) obtained in the presence of a positive control inhibitor (10 μM staurosporine) from cpm obtained in the presence of vehicle. The ability of a test compound to inhibit this activity was determined as: Percentage inhibition=((cpm determined for sample with test compound present−cpm determined for sample with positive control inhibitor) divided by (cpm determined in the presence of vehicle−cpm determined for sample with positive control inhibitor))*100%.
Dose dilution series were prepared for the compounds enabling the testing of dose-response effects in the JAK1 assay and the calculation of the IC50 for each compound.

Recombinant human JAK1 catalytic domain, sequence (P23458 850-1154): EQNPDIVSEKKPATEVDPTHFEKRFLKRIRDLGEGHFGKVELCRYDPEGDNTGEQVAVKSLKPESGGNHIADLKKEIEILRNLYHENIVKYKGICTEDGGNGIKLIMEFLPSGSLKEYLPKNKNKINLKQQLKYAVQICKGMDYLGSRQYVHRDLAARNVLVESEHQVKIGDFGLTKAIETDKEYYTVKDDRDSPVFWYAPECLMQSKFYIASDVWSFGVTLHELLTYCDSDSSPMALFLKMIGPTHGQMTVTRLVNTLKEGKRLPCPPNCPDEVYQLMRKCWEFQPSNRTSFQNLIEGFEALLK

Row | Structure (SMILES) | IC50 [µM]
1 | O=C(Nc1nc2cccc(-c3ccc(OCCc4cccnc4)cc3)n2n1)C1CC1 [Compound 127, N-(5-(4-(2-(pyridin-3-yl)ethoxy)phenyl)-[1,2,4]triazolo[1,5-a]pyridin-2-yl)cyclopropanecarboxamide] | 0.101 to 0.5
2 | O=C(Nc1nc2cccc(-c3ccc(C(=O)N4CCC(c5nc6ccccc6[nH]5)CC4)cc3)n2n1)C1CC1 [Compound 128, N-(5-(4-(4-(1H-benzo[d]imidazol-2-yl)piperidine-1-carbonyl)phenyl)-[1,2,4]triazolo[1,5-a]pyridin-2-yl)cyclopropanecarboxamide] | 0.501 to 1
3 | O=C(Nc1nc2cccc(-c3ccc(N4CCOCC4)cc3)n2n1)C1CC1 [Compound 129, N-(5-(4-morpholinophenyl)-[1,2,4]triazolo[1,5-a]pyridin-2-yl)cyclopropanecarboxamide] | > 1
4 | CN1CCN(Cc2ccc(-c3cccc4nc(NC(=O)C5CC5)nn34)cc2)CC1 [Compound 130, N-(5-(4-((4-methylpiperazin-1-yl)methyl)phenyl)-[1,2,4]triazolo[1,5-a]pyridin-2-yl)cyclopropanecarboxamide] | > 1
5 | COc1ccccc1C1CCN(C(=O)c2ccc(-c3cccc4nc(NC(=O)C5CC5)nn34)cc2)CC1 [Compound 131, N-(5-(4-(4-(2-methoxyphenyl)piperidine-1-carbonyl)phenyl)-[1,2,4]triazolo[1,5-a]pyridin-2-yl)cyclopropanecarboxamide] | 0.101 to 0.5
6 | O=C(Nc1nc2cccc(-c3ccc(C(=O)N4CCC(O)(c5ccc(Cl)cc5)CC4)cc3)n2n1)C1CC1 [Compound 132] | 0.101 to 0.5
7 | Cc1ccccc1OCC1CCN(C(=O)c2ccc(-c3cccc4nc(NC(=O)C5CC5)nn34)cc2)CC1 [Compound 133] | 0.101 to 0.5
8 | CC(C)N(Cc1ccc(N2CCCCC2)cc1)C(=O)c1ccc(-c2cccc3nc(NC(=O)C4CC4)nn23)cc1 [Compound 135, 4-(2-(cyclopropanecarboxamido)-[1,2,4]triazolo[1,5-a]pyridin-5-yl)-N-isopropyl-N-(4-(piperidin-1-yl)benzyl)benzamide] | 0.101 to 0.5
9 | CCCN(CC1CCCO1)C(=O)c1ccc(-c2cccc3nc(NC(=O)C4CC4)nn23)cc1 (centres unmarked) [Compound 136, 4-(2-(cyclopropanecarboxamido)-[1,2,4]triazolo[1,5-a]pyridin-5-yl)-N-propyl-N-((tetrahydrofuran-2-yl)methyl)benzamide] | 0.101 to 0.5
10 | O=C(Nc1nc2cccc(-c3ccc(CN4CCCCC4)cc3)n2n1)C1CC1 [Compound 139, N-(5-(4-(pipcridin-1-ylmethyl)phenyl)-[1,2,4]triazolo[1,5-a]pyridin-2-yl)cyclopropanecarboxamide] | 0.501 to 1
11 | NC(=O)C1CCN(Cc2ccc(-c3cccc4nc(NC(=O)C5CC5)nn34)cc2)CC1 [Compound 140] | 0.101 to 0.5
12 | CC(=O)N1CCN(Cc2ccc(-c3cccc4nc(NC(=O)C5CC5)nn34)cc2)CC1 [Compound 141, N-(5-(4-((4-acetoylpiperazin-1-yl)methyl)phenyl)-[1,2,4]triazolo[1,5-a]pyridin-2-yl)cyclopropanecarboxamide] | 0.101 to 0.5
13 | O=C(Nc1nc2cccc(-c3ccc(CN4CCN(c5ccccn5)CC4)cc3)n2n1)C1CC1 [Compound 142, N-(5-(4-((4-(pyridin-2-yl)piperazin-1-yl)methyl)phenyl)-[1,2,4]triazolo[1,5-a]pyridin-2-yl)cyclopropanecarboxamide] | 0.101 to 0.5
14 | O=C(Nc1nc2cccc(-c3ccc(CN4CCN(c5ncccn5)CC4)cc3)n2n1)C1CC1 [Compound 143, N-(5-(4-((4-(pyrimidin-2-yl)piperazin-1-yl)methyl)phenyl)-[1,2,4]triazolo[1,5-a]pyridin-2-yl)cyclopropanecarboxamide] | 0.101 to 0.5
15 | O=C(Nc1nc2cccc(-c3ccc(C(=O)N4CCC(CCc5ccccc5)CC4)cc3)n2n1)C1CC1 [Compound 147] | 0.101 to 0.5
16 | O=C(Nc1nc2cccc(-c3ccc(C(=O)N4CCC(c5noc6cc(F)ccc56)CC4)cc3)n2n1)C1CC1 [Compound 149, N-(5-(4-(4-(6-fluorobenzo[d]isoxazol-3-yl)piperidine-1-carbonyl)phenyl)-[1,2,4]triazolo[1,5-a]pyridin-2-yl)cyclopropanecarboxamide] | 0.101 to 0.5
17 | COCC(C)N(Cc1ccc(F)cc1)C(=O)c1ccc(-c2cccc3nc(NC(=O)C4CC4)nn23)cc1 (centres unmarked) [Compound 151, 4-(2-(cyclopropanecarboxamido)-[1,2,4]triazolo[1,5-a]pyridin-5-yl)-N-(4-fluorobenzyl)-N-(1-methoxypropan-2-yl)benzamide] | 0.101 to 0.5
18 | O=C(Nc1nc2cccc(-c3ccc(C(=O)N4CCC(n5nnc6ccccc65)CC4)cc3)n2n1)C1CC1 [Compound 152, N-(5-(4-(4-(1H-benzo[d][1,2,3]triazol-1-yl)piperidine-1-carbonyl)phenyl)-[1,2,4]triazolo[1,5-a]pyridin-2-yl)cyclopropanecarboxamide] | 0.101 to 0.5

Row | Structure (SMILES) | IC50 [µM]
19 | O=C(Nc1nc2cccc(-c3ccc(C(=O)N(Cc4ccc(F)cc4)CC4CCCO4)cc3)n2n1)C1CC1 (centres unmarked) [Compound 153, 4-(2-(cyclopropanecarboxamido)-[1,2,4]triazolo[1,5-a]pyridin-5-yl)-N-(4-fluorobenzyl)-N-((tetrahydrofuran-2-yl)methyl)benzamide] | 0.101 to 0.5
20 | Cc1nccn1CCC1CCN(C(=N)c2ccc(-c3cccc4nc(NC(=O)C5CC5)nn34)cc2)CC1 [Compound 154, N-(5-(4-(imino(4-(2-(2-methyl-1H-imidazol-1-yl)ethyl)piperidin-1-yl)methyl)phenyl)-[1,2,4]triazolo[1,5-a]pyridin-2-yI)cyclopropanecarboxamide] | 0.101 to 0.5
21 | CN(CCc1ccccn1)Cc1ccc(-c2cccc3nc(NC(=O)C4CC4)nn23)cc1 [Compound 155, N-(5-(4-((methyl(2-(pyridin-2-yl)ethyl)amino)methyl)phenyl)-[1,2,4]triazolo[1,5-a]pyridin-2-yl)cyclopropanecarboxamide] | > 1
22 | O=C(Nc1nc2cccc(-c3ccc(OCc4nnn[nH]4)cc3)n2n1)C1CC1 [Compound 158] | 0.101 to 0.5
23 | CN(Cc1ccc(-c2ccccn2)cc1)Cc1ccc(-c2cccc3nc(NC(=O)C4CC4)nn23)cc1 [Compound 159, N-(5-(4-((methyl(4-(pyridin-2-yl)benzyl)amino)methyl)phenyl)-[1,2,4]triazolo[1,5-a]pyridin-2-yl)cyclopropanecarboxamide] | 0.101 to 0.5
24 | Cc1cc(CN(C)Cc2ccc(-c3cccc4nc(NC(=O)C5CC5)nn34)cc2)nn1C [Compound 160, N-(5-(4-((((1,5-dimethyl-1H-pyrazol-3-yl)methyl)(methyl)amino)methyl)phenyl)-[1,2,4]triazolo[1,5-a]pyridin-2-yl)cyclopropanecarboxamide] | 0.101 to 0.5
25 | CN(Cc1ccc(-c2cncnc2)cc1)Cc1ccc(-c2cccc3nc(NC(=O)C4CC4)nn23)cc1 [Compound 161, N-(5-(4-((methyl(4-(pyrimidin-5-yl)benzyl)amino)methyl)phenyl)-[1,2,4]triazolo[1,5-a]pyridin-2-yl)cyclopropanecarboxamide] | 0.501 to 1
26 | CN(Cc1cccnc1)c1ccc(-c2cccc3nc(NC(=O)C4CC4)nn23)cc1 [Compound 162, N-(5-(4-(methyl(pyridin-3-ylmethyl)amino)phenyl)-[1,2,4]triazolo[1,5-a]pyridin-2-yl)cyclopropanecarboxamide] | > 1
27 | O=C(Nc1nc2cccc(-c3ccc(OCc4ccc(N5CCOCC5)nc4)cc3)n2n1)C1CC1 [Compound 165] | 0.101 to 0.5
28 | CN1CCN(c2ccc(COc3ccc(-c4cccc5nc(NC(=O)C6CC6)nn45)cc3)cn2)CC1 [Compound 167, N-(5-(4-((6-(4-methylpiperazin-1-yl)pyridin-3-yl)methoxy)phenyl)-[1,2,4]triazolo[1,5-a]pyridin-2-yl)cyclopropanecarboxamide] | 0.101 to 0.5
29 | O=C(Nc1nc2cccc(-c3ccc(NCc4cccnc4)nc3)n2n1)C1CC1 [Compound 170, N-(5-(6-(pyridin-3-ylmethylamino)pyridin-3-yl)-[1,2,4]triazolo[1,5-a]pyridin-2-yl)cyclopropanecarboxamide] | 0.501 to 1
30 | O=C(Nc1nc2cccc(-c3ccc(NCc4ccccn4)nc3)n2n1)C1CC1 [Compound 171, N-(5-(6-(pyridin-2-ylmethylamino)pyridin-3-yl)-[1,2,4]triazolo[1,5-a]pyridin-2-yl)cyclopropanecarboxamide] | 0.101 to 0.5
31 | O=C(Nc1nc2cccc(-c3ccc(NCCc4cccnc4)nc3)n2n1)C1CC1 [Compound 172, N-(5-(6-(2-(pyridin-3-yl)ethylamino)pyridin-3-yl)-[1,2,4]triazolo[1,5-a]pyridin-2-yl)cyclopropanecarboxamide] | 0.501 to 1
32 | Cc1cc(CNc2ccc(-c3cccc4nc(NC(=O)C5CC5)nn34)cn2)nn1C [Compound 173, N-(5-(6-((1,5-dimethyl-1H-pyrazol-3-yl)methylamino)pyridin-3-yl)-[1,2,4]triazolo[1,5-a]pyridin-2-yl)cyclopropanecarboxamide] | > 1
33 | O=C(Nc1nc2cccc(-c3ccc(NS(=O)(=O)c4ccccc4)nc3)n2n1)C1CC1 [Compound 180, N-(5-(6-(phenylsulfonamido)pyridin-3-yl)-[1,2,4]triazolo[1,5-a]pyridin-2-yl)cyclopropanecarboxamide] | 0.101 to 0.5
34 | N#CCN(CCc1ccccc1)C(=O)c1ccc(-c2cccc3nc(NC(=O)C4CC4)nn23)cc1 [Compound 181, N-(cyanomethyl)-4-(2-(cyclopropanecarboxamido)-[1,2,4]triazolo[1,5-a]pyridin-5-yl)-N-phenethylbenzamide] | 0.101 to 0.5
35 | O=C(Nc1nc2cccc(-c3ccc(NS(=O)(=O)Cc4ccccc4)nc3)n2n1)C1CC1 [Compound 184, N-(5-(6-(phenylmethylsulfonamido)pyridin-3-yl)-[1,2,4]triazolo[1,5-a]pyridin-2-yl)cyclopropanecarboxamide] | > 1
